# Key:
# [1] = test system: H460 cells; settings: cited from earlier work
# [2] = test system: H292 cells; assay: MTT cell viability assay (cytotoxicity); format: cell-based, human; settings: Homo sapiens, NCI-H292, 24 h, read-out: IC50 ± SD H292
# Protocol: (§1) NSCLCs H292 and H460 were treated with various concentrations of derivatives of the RT right-half analog for 24 h. […] However, the IC50 values for DH_17, DH_20, DH_23, and DH_26 in H460 cells were greater than 100 μM. TM-(−)-18 was identified as a potent compound in a previous study. The structure of TM-(−)-18 was present in Figure 1A. […] To assess the selectivity of DH_28, DH_30, DH_31, and TM-(−)-18 in lung cancer cells, non-tumorigenic epithelial cell lines derived from human bronchial epithelial cells (BEAS-2B) were treated with DH_28, DH_30, DH_31, and TM-(−)-18 at various concentrations for 24 h.
# (§2) MTT assay was conducted to ascertain cell viability in the presence of DH_17, DH_20, DH_23, DH_26, DH_28, DH_30, DH_31, or TM-(–)-18. H292 and H460 cells (1.0 × 10^4 cells per well) were seeded in 96-well plates. Following overnight incubation, the cells were treated with different concentrations of RT right–half analogs (0–100 μM) for 24 h at 37 °C. Subsequently, cell viability was assessed using MTT assay, following the manufacturers’ protocols. The optical density was measured at 570 nm using a CLARIOStar microplate reader (BMG Labtech, Ortenberg, Germany).
# [3] = test system: H460 cells; assay: MTT cell viability assay (cytotoxicity); format: cell-based, human; settings: Homo sapiens, NCI-H460, 24 h, read-out: IC50 ± SD H460
# Protocol: as §1, §2
Compound,H460 cell motility [1],IC50 [2] [µM],IC50 [3] [µM]
22-O-(N-Boc-L-glycine) ester of RM,inhibited,–,–
"COc1c(C)cc2c(c1O)[C@@H]1CN(Cc3ccccn3)[C@@H](C#N)[C@H](C2)N1C [DH_17, (1R,4R,5S)-10-hydroxy-9-methoxy-8,11-dimethyl-3-(pyridin-2-ylmethyl)-1,2,3,4,5,6-hexahydro-1,5-epiminobenzo[d]azocine-4-carbonitrile]",–,20.5 ± 3.69,> 100
"COc1c(C)cc2c(c1O)[C@@H]1CN(Cc3cccnc3)[C@@H](C#N)[C@H](C2)N1C [DH_20, (1R,4R,5S)-10-hydroxy-9-methoxy-8,11-dimethyl-3-(pyridin-3-ylmethyl)-1,2,3,4,5,6-hexahydro-1,5-epiminobenzo[d]azocine-4-carbonitrile]",–,21.5 ± 3.77,> 100
"COc1c(C)cc2c(c1O)[C@@H]1CN(Cc3ccncc3)[C@@H](C#N)[C@H](C2)N1C [DH_23, (1R,4R,5S)-10-hydroxy-9-methoxy-8,11-dimethyl-3-(pyridin-4-ylmethyl)-1,2,3,4,5,6-hexahydro-1,5-epiminobenzo[d]azocine-4-carbonitrile]",–,17.5 ± 3.08,> 100
"COc1c(C)cc2c(c1O)[C@@H]1CN(Cc3cncs3)[C@@H](C#N)[C@H](C2)N1C [DH_26, (1R,4R,5S)-10-hydroxy-9-methoxy-8,11-dimethyl-3-(thiazol-5-ylmethyl)-1,2,3,4,5,6-hexahydro-1,5-epiminobenzo[d]azocine-4-carbonitrile]",–,7.18 ± 2.39,> 100

# — paper PMC11355573, “A New Renieramycin T Right-Half Analog as a Small Molecule Degrader of STAT3” (Marine Drugs, 2024)
